Test results taken from patent publication US11464745B2, “Solid pharmaceutical dosage formulations and processes” (UCL Business PLC, priority 2016, dated 2022).

Tests used:
[1] = FDM printing; cited from earlier work
[2] = Determination of drug loading by HPLC (drug degradation during SLS printing); format: physicochemical; conditions: SLS 3D printing, 445 nm 2.3 W laser
Description: Tablets weighing approx. 300 mg, prepared as in example 1, were placed in a volumetric flask with deionized water (1 L) under magnetic stirring until complete dissolution.
Samples of the solutions were then filtered through 0.45 μm filters (Millipore Ltd, Ireland) and the concentration of drug determined with high performance liquid chromatograph (HPLC). We used a Hewlett Packard 1050 Series HPLC system, Agilent Technologies, UK. The validated high performance liquid chromatographic assay entailed injecting 20 μL samples for analysis using a mobile phase, consisting of gradient system of (A) water adjusted to pH 2 with orthophosphoric acid and (B) acetonitrile, through a Luna 5 μm C18 column, 150×4.6 mm (Phenomenex, UK) maintained at 40° C. The mobile phase was pumped at a flow rate of 1 mL/min under the following gradient program: 0-15 min, 5-20% B; 15-16 min, 20-5% B.
HPLC drug loading studies have been performed. […] (Goyanes et al. 3D printing of modified-release aminosalicylate (4-ASA and 5-ASA) tablets. Eur. J. Pharm. Biopharm. 89, 157-162).

drug degradation during the printing process (HPLC) [2]: No degradation
Structure (SMILES): Nc1ccc(C(=O)O)c(O)c1 [4-ASA]
drug degradation while printing [1]: degrade
